Results on four compounds are retold here after patent US20110015119A1, “NOVEL SEMI-SYNTHETIC GLYCOPEPTIDES AS ANTIBACTERIAL AGENTS” (LEAD THERAPEUTICS, INC., priority 2009, published 2011).

Holding throughout (type): cell-based
The subject of one assay is Enterococcus faecium 800. As to the kind of experiment: MIC by broth microdilution, EFcm 800. As to conditions: Enterococcus faecium, 800, read-out: MIC E FCM 800. The method, boiled down: (§1)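 Clinical isolates, either susceptible or resistant to natural glycopeptides, were tested by broth microdilution in Mueller-Hinton medium as NCCLS recommends.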
For assay [1], the system named is Staphylococcus epidermidis 835. As to the kind of experiment: MIC by broth microdilution, SE 835. As to conditions: Staphylococcus epidermidis, 835, read-out: MIC SE 835. A digest of the protocol:
as §1

Assay [2] deals with Enterococcus faecium 752 (VRE, Van A). As to the kind of experiment: MIC by broth microdilution, EFcm 752. The note with it: Enterococcus faecium, VRE, read-out: MIC E FCM 752, Enterococcus faecium 752 (VRE, Van A); class symbols. The method, boiled down: as §1
In assay [3] the test system is Enterococcus faecalis 848 (VRE, Van A). The assay is described as follows: MIC by broth microdilution, EFc 848. As to conditions: Enterococcus faecalis, VRE, read-out: MIC E FC 848, Enterococcus faecalis 848 (VRE, Van A); class symbols. The method, boiled down:
as §1

Assay [4] concerns Staphylococcus aureus 757 (MRSA). The assay is described as follows: MIC by broth microdilution, SA 757. As to conditions: Staphylococcus aureus, MRSA, read-out: MIC SA 757. The method, boiled down:
as §1

Assay [5] relates to Staphylococcus aureus 100 (ATCC 29213). The assay is described as follows: MIC by broth microdilution, SA 100. As to conditions: Staphylococcus aureus, ATCC29213, read-out: MIC SA 100. The method, boiled down: as §1
Assay [6] deals with Staphylococcus aureus 2012 (VISA). The assay is described as follows: MIC by broth microdilution, SA 2012. The note with it: Staphylococcus aureus, VISA, read-out: MIC SA 2012, Staphylococcus aureus 2012 (VISA); class symbols. The method, boiled down:
as §1

Assay [7] concerns Streptococcus pyogenes 712. As to the kind of experiment: MIC by broth microdilution, SPY 712. The note with it: Streptococcus pyogenes, 712, read-out: MIC S PYO 712. The method, boiled down:
as §1

In assay [8] the test system is Streptococcus pneumoniae 1195 (ATCC 49619). As to the kind of experiment: MIC by broth microdilution, SPNE 1195. As to conditions: Streptococcus pneumoniae, ATCC49619, read-out: MIC S PNE 1195. The method, boiled down: as §1
Assay [9] concerns Enterococcus faecalis 101 (ATCC 29212). As to the kind of experiment: MIC by broth microdilution, EFc 101. The note with it: Enterococcus faecalis, ATCC29212, read-out: MIC E FC 101, Enterococcus faecalis 101 (ATCC 29212); class symbols. The method, boiled down:
as §1

The test system of assay [10] is Staphylococcus epidermidis 831 (MRSE). The assay is described as follows: MIC by broth microdilution, SE 831. The note with it: Staphylococcus epidermidis, MRSE, read-out: MIC SE 831. A digest of the protocol: as §1

Converted amounts (≈) assume the structure as drawn.

For `CCCCCCCCNC(=O)Oc1cc(O)c2c(c1)[C@@H](C(=O)NC1C3CC4CC(C3)CC1C4)NC(=O)[C@H]1NC(=O)[C@H](NC(=O)[C@@H]3NC(=O)[C@H](CC(N)=O)NC(=O)[C@H](NC(=O)[C@@H](CC(C)C)NC)[C@H](O)c4ccc(c(Cl)c4)Oc4cc3cc(c4OC3OC(CO)C(O)C(O)C3OC3CC(C)(N)C(O)C(C)O3)Oc3ccc(cc3Cl)[C@H]1O)c1ccc(O)c-2c1` (some centres unmarked) [Compound 33], the minimal inhibitory concentration (MIC) in the assay with Enterococcus faecium 800 was in the range of 0.01 to 0.5 µg/mL (≈ 0.00575 to 0.288 µM); in assay [1] it was 0.01 to 0.5 µg/mL (≈ 0.00575 to 0.288 µM); in [2], 0.5 to 1 µg/mL (≈ 0.288 to 0.575 µM); in assay [3], 2 to 4 µg/mL (≈ 1.15 to 2.3 µM); in [4] it was 0.01 to 0.5 µg/mL (≈ 0.00575 to 0.288 µM); in assay [5], 0.01 to 0.5 µg/mL (≈ 0.00575 to 0.288 µM). For the same compound, the minimum inhibitory concentration (MIC) lay in the range of 0.5 to 1 µg/mL (≈ 0.288 to 0.575 µM) in assay [6]; 0.01 to 0.5 µg/mL (≈ 0.00575 to 0.288 µM) in assay [7]; 0.01 to 0.5 µg/mL (≈ 0.00575 to 0.288 µM) in assay [8]; 0.01 to 0.5 µg/mL (≈ 0.00575 to 0.288 µM) in assay [9]; 0.01 to 0.5 µg/mL (≈ 0.00575 to 0.288 µM) in assay [10].

Take `CCCCCCCOc1ccc(S(=O)(=O)NCCCCCCNC(=O)Oc2cc(O)c3c(c2)[C@@H](C(=O)O)NC(=O)[C@H]2NC(=O)[C@H](NC(=O)[C@@H]4NC(=O)[C@H](CC(N)=O)NC(=O)[C@H](NC(=O)[C@@H](CC(C)C)NC)[C@H](O)c5ccc(c(Cl)c5)Oc5cc4cc(c5O[C@@H]4O[C@H](CO)[C@@H](O)[C@H](O)[C@H]4O[C@H]4C[C@](C)(N)[C@H](O)[C@H](C)O4)Oc4ccc(cc4Cl)[C@H]2O)c2ccc(O)c-3c2)cc1` (atropisomer, axis not shown) [Compound 355]: the minimal inhibitory concentration (MIC) was 0.01 to 0.5 µg/mL (≈ 0.00542 to 0.271 µM) in the assay on Enterococcus faecium 800; 0.01 to 0.5 µg/mL (≈ 0.00542 to 0.271 µM) in assay [1]; 0.01 to 0.5 µg/mL (≈ 0.00542 to 0.271 µM) in assay [2]; 1 to 2 µg/mL (≈ 0.542 to 1.08 µM) in assay [3]; 0.01 to 0.5 µg/mL (≈ 0.00542 to 0.271 µM) in assay [4]; 0.01 to 0.5 µg/mL (≈ 0.00542 to 0.271 µM) in assay [5]. Also, the MIC in assay [6] fell in the range of 0.5 to 1 µg/mL (≈ 0.271 to 0.542 µM); in assay [7], 0.01 to 0.5 µg/mL (≈ 0.00542 to 0.271 µM); in assay [8] it was 0.01 to 0.5 µg/mL (≈ 0.00542 to 0.271 µM); in assay [9], 0.01 to 0.5 µg/mL (≈ 0.00542 to 0.271 µM); in [10], 0.01 to 0.5 µg/mL (≈ 0.00542 to 0.271 µM).

On to `CCCOc1ccc(NC(=O)Oc2cc(O)c3c(c2)[C@@H](C(=O)O)NC(=O)[C@H]2NC(=O)[C@H](NC(=O)[C@@H]4NC(=O)[C@H](CC(N)=O)NC(=O)[C@H](NC(=O)[C@@H](CC(C)C)NC)[C@H](O)c5ccc(c(Cl)c5)Oc5cc4cc(c5O[C@@H]4O[C@H](CO)[C@@H](O)[C@H](O)[C@H]4O[C@H]4C[C@](C)(N)[C@H](O)[C@H](C)O4)Oc4ccc(cc4Cl)[C@H]2O)c2ccc(O)c-3c2)cc1` (atropisomer, axis not shown) [Compound 329], for which the MIC with Enterococcus faecium 800 is 0.5 to 1 µg/mL (≈ 0.307 to 0.615 µM); in [1], 2 to 4 µg/mL (≈ 1.23 to 2.46 µM); in assay [2], > 16 µg/mL; in assay [3], > 16 µg/mL; in assay [4] it was 0.5 to 1 µg/mL (≈ 0.307 to 0.615 µM); in [5], 1 to 2 µg/mL (≈ 0.615 to 1.23 µM). The minimal inhibitory concentration (MIC) was 8 to 16 µg/mL (≈ 4.92 to 9.84 µM) in assay [6]; 0.01 to 0.5 µg/mL (≈ 0.00615 to 0.307 µM) in assay [7]; 0.01 to 0.5 µg/mL (≈ 0.00615 to 0.307 µM) in assay [8]; 0.5 to 1 µg/mL (≈ 0.307 to 0.615 µM) in [9]; 2 to 4 µg/mL (≈ 1.23 to 2.46 µM) in assay [10].

For the compound `CNCCCOc1ccc(NC(=O)Oc2cc(O)c3c(c2)[C@@H](C(=O)NC2C4CC5CC(C4)CC2C5)NC(=O)[C@H]2NC(=O)[C@H](NC(=O)[C@@H]4NC(=O)[C@H](CC(N)=O)NC(=O)[C@H](NC(=O)[C@@H](CC(C)C)NC)[C@H](O)c5ccc(c(Cl)c5)Oc5cc4cc(c5O[C@@H]4O[C@H](CO)[C@@H](O)[C@H](O)[C@H]4O[C@H]4C[C@](C)(N)[C@H](O)[C@H](C)O4)Oc4ccc(cc4Cl)[C@H]2O)c2ccc(O)c-3c2)cc1` (some centres unmarked) [Compound 333], the MIC is 2 to 4 µg/mL (≈ 1.12 to 2.24 µM) with Enterococcus faecium 800; 8 to 16 µg/mL (≈ 4.47 to 8.94 µM) in assay [1]; > 16 µg/mL in assay [2]; > 16 µg/mL in assay [3]; 4 to 8 µg/mL (≈ 2.24 to 4.47 µM) in [4]; 4 to 8 µg/mL (≈ 2.24 to 4.47 µM) in assay [5]. Further, the MIC in assay [6] is > 16 µg/mL; in assay [7] it was 1 to 2 µg/mL (≈ 0.559 to 1.12 µM); in [8] it was 2 to 4 µg/mL (≈ 1.12 to 2.24 µM); in assay [9], 4 to 8 µg/mL (≈ 2.24 to 4.47 µM); in assay [10], 8 to 16 µg/mL (≈ 4.47 to 8.94 µM).
